What was measured:
[1] = system: normal growing eye; assay: Effect of rosiglitazone on normal chick eyes; type: in vivo; details: 5 mM, 10 μL intravitreal injection once a day for 3 days, two time points (FIG. 2)
[2] = in vivo
[3] = system: lens-induced myopia (LIM) chick eyes; assay: Lens-induced myopia (LIM) in chicks, axial length by ultrasonic A-scan; type: in vivo
Description: (§1) Chicks age day 7 are divided into 2 groups, lens-induced myopia (LIM) and age-matched control (CTL), randomly. Chick eyes are measured with ultrasonic A-scan and refractive index by retinoscope by a single-masked operator. A computer-controlled randomization is applied to assign either left or right eye for LIM treatment and contralateral eye served as untouch control. Baseline physiological data is acquired on day 7. Purified rosiglitazone (>99%) is purchased from manufacturer and dissolved in 100% Dimethyl sulfoxide (DMSO). A working rosiglitazone solution is prepared in the concentration of 5 mM in 2% DMSO, PBS solution prior use. The rosiglitazone (5 mM, 10 μL) is delivered by intravitreal injection in the LIM eye once a day for 3 consecutive days. A-10 D lens is applied soon after drug delivery. Chick eyes are measured again on day 10 to access the effect of rosiglitazone.
as §1, with “Further, the effect of rosiglitazone in lower dosages is also investigated. Briefly, chicks age” for “Chicks age”, “into 3” for “into 2”, “myopia with higher dosage (LIM with 1 mM, n=7), lens-induced myopia with lower dosage (LIM with 0.2 mM, n=7)” for “myopia (LIM)”, “control (CTL, n=2),” for “control (CTL),”, “as untouched” for “as untouch”, “rosiglitazone (1 mM, 10 μL or 0.2” for “rosiglitazone (5”
Referring to FIG. 1, the rosiglitazone treatment has shown a consistent effect on slowing myopia progression by an average of 65% using different batches of chicks when compared to independent age-matched chicks subjected to LIM treatment. The effect of myopia inhibition is reduced with dose with an exponential regression of y=1.14e^−0.57x, R^2=1) to 37% of inhibition in 1 mM drug and 21% of inhibition in 0.2 mM drug treatment group.

For `CN(CCOc1ccc(CC2SC(=O)NC2=O)cc1)c1ccccn1` (stereo not drawn) [rosiglitazone], the “effect on normal growing eye or inducing hyperopia in naked eye” value [1] was “no statistically significant effect”, the “toxicity in animal models” value [2] was “no sign of toxicity” and the “inhibition of myopia (axial length)” value ([3]; 0.2 mM, 10 μL intravitreal injection once a day for 3 days, -10 D lens, measured day 10) was 21%. For the same molecule, the “inhibition of myopia (axial length)” value ([3]; 1 mM, 10 μL intravitreal injection once a day for 3 days, -10 D lens, measured day 10) was 37%, the “slowing myopia progression (axial length), inhibition vs age-matched LIM chicks” value ([3]; 5 mM, 10 μL intravitreal injection once a day for 3 days, -10 D lens, measured day 10, average over different batches of chicks) was 65% and the “suppression of axial length growth” value ([3]; dose-dependent, summary statement, dose not given) was 65%.
